{
  "source": "patent US12440500B2",
  "about": "“Phytoecdysones and the derivatives thereof for use in the treatment of neuromuscular diseases” (BIOPHYTIS, priority 2019, dated 2025)",
  "type_in_all_cases": "in vivo, mouse",
  "key": {"[1]": {"system": "slow, intermediate and fast motor neurons of SMA mice", "experiment": "Motor neuron sub-populations (ChAT/ERRβ/MMP9 co-labeling, lumbar spinal cord)", "procedure": "In a manner complementary to the quantitative analysis of the number of motor neurons and of the size of their soma as well as the qualitative study concerning their location (medial or lateral in the ventral spinal cord), we studied the impact of the treatment by BIO101 on the protection of the sub-populations of motor neurons (slow motor neurons, intermediate motor neurons and fast motor neurons). This qualitative analysis of the sub-populations of motor neurons was carried out on thick cross-sections of the lumbar region of the spinal cord (L1-L5) of control or SMA mice treated or not with BIO101 by immunofluorescent labeling with Choline Acetyltransferase such as was described hereinabove (Biondi et al., 2008; Branchu et al., 2013) as well as an analysis of the type of motor neurons by immunofluorescence co-labeling with Estrogen-related receptor-β (ERRβ), a specific marker of the slow motor neurons, or with Matrix metallopeptidase 9 (MMP9), a specific marker of the fast motor neurons.\nThe anesthetized mice underwent an intracardiac infusion with PBS. The spinal cords of the mice were taken, fixed then rinsed. The lumbar region of the spinal cords (L1-L5) was coated in a 4% solution of agarose. 50 μm cross-sections were made using a vibratome over the entire length of the sample. One section every 5 sections of spinal cord was then used for the immunohistochemical analyses. […]"}, "AKT": {"system": "AKT", "experiment": "Western blot, phosphorylation of AKT in SMA mice", "procedure": "The frozen muscle Plantaris was homogenized in extraction buffer by mechanical grinding. The supernatant containing the protein extract was sampled, then the protein extracts were then dosed according to the Lowry protein assay. An electrophoresis on SDS-PAGE gel was conducted, then the separated proteins were transferred onto membranes. The primary antibodies used were the following: mouse monoclonal anti-SMN (1:5,000), rabbit polyclonal anti-Ser 473 phospho-AKT (1:1000), rabbit polyclonal anti-AKT ( 1/100), rabbit monoclonal anti phospho-ERK ½ (1:500), anti-MAP Kinase ½ (ERK ½) (1:1000). […] The optical density of each specific band was quantified with image processing software by subtracting the background and by normalizing with the optical density of the β-actin bands. For the controls treated with the vehicle, the values obtained were determined at 1 and the values of the other groups were normalized in relation to these controls and expresses as a relative quantity. […] The quantitative values of pAKT at the Plantaris represent 3 mice per group treated with the vehicle (control or SMA) and 4 mice treated with BIO101. The quantitative values of pERK at the Plantaris represent at least 4 mice per group. The quantitative values of SMN represent n=2. […]"}, "[2]": {"system": "neuromuscular junctions of muscles soleus, plantaris and tibialis of SMA mice", "experiment": "Morphological study of neuromuscular junction maturation (immunofluorescence)"}, "[3]": {"system": "motor neurons of the lumbar spinal cord of SMA mice", "experiment": "Motor neuron count, location and soma surface (anti-ChAT immunofluorescence, lumbar spinal cord)", "procedure": "A quantitative and qualitative study of the populations of motor neurons on thick cross-sections of the lumbar region of the spinal cord (L1-L5) of healthy control mice or SMA treated with the vehicle or with BIO101 for 11 days was carried out via immunofluorescent labeling with Choline AcetylTransferase (ChAT) such as was described hereinabove (Biondi et al., 2008; Boyer et al., 2013). The analysis was then refined by a study of the different motor neuron sub-populations by characterizing their location in the spinal cord (lateral or medial position), as well as the distribution of the size of their soma.\nThe anesthetized mice underwent an intracardiac infusion with PBS. The spinal cords of the mice were taken, fixed then rinsed. The lumbar region of the spinal cords (L1-L5) was coated in a 4% solution of agarose. 50 μm cross-sections were made using a vibratome over the entire length of the sample. One section every 5 sections of spinal cord was then used for the immunohistochemical analyses. After a saturation with 0.1M glycine, the tissues were then permeabilized, blocked then marked with a goat polyclonal primary antibody anti-choline acetyltransferase (ChAT) ( 1/400^e). The sections are then washed then incubated with the anti-goat polyclonal secondary antibody coupled with Cyanine 3 (1:400^e). The cores are marked using Bisbenzimide ( 1/1,000^e) then the sections are washed again before being mounted with a photobleaching inhibitor of the fluorescent dyes. The specificity of the marking is verified thanks to a control marking carried out in the absence of the primary antibody.\nThe images were obtained using a camera mounted on a microscope with a magnification of ×200 and coupled to a central processing unit of the microcomputer type comprising in particular a suitable software for image acquisition. All of the counts were carried out using image processing software.\nThe quantitative analysis was then refined, on the one hand, by studying the different motor neuron sub-populations by analyzing their location in the spinal cord (lateral or medial position), and on the other hand, by studying the distribution of the surface of their soma."}},
  "data": [
    {"smiles": "CC(C)(O)CC[C@@H](O)[C@](C)(O)[C@H]1CC[C@@]2(O)C3=CC(=O)[C@@H]4C[C@@H](O)[C@@H](O)C[C@]4(C)[C@H]3CC[C@]12C", "note": "[BIO101, 20-hydroxyecdysone]", "values": [
      {"measurement": "number of fast motor neurons (ChAT+MMP9+)", "setting": "[1]; SMA mice treated P0 to P11 (SMA vehicle 11), p<0.05", "result": 14},
      {"measurement": "number of slow motor neurons (ChAT+ERRβ+)", "setting": "[1]; between healthy vehicle, SMA vehicle and SMA treated groups", "result": "does not vary significantly"},
      {"measurement": "phosphorylation of AKT (pAKT)", "setting": "AKT; muscle Plantaris, SMA mice treated P0 to P11", "result": "very substantially increasing"},
      {"measurement": "level of pAKT", "setting": "AKT; spinal cord, SMA mice treated daily for 11 days", "result": "increasing"},
      {"measurement": "percentage of neuromuscular junctions of the perforated type", "setting": "[2]; Soleus, treated daily from birth to P10, p<0.05 versus vehicle", "result": 26.5, "unit": "%"},
      {"measurement": "percentage of neuromuscular junctions of the perforated type", "setting": "[2]; Tibialis, treated daily from birth to P10, p<0.05 versus vehicle", "result": 45.7, "unit": "%"},
      {"measurement": "percentage of immature plates", "setting": "[2]; all the muscles tested, treated daily from birth to P10", "result": "decrease"},
      {"measurement": "percentage of neuromuscular junctions of the perforated type", "setting": "[2]; muscle plantaris, treated daily from birth to P10, p=ns versus vehicle", "result": 16.3, "unit": "%"},
      {"measurement": "loss of motor neurons in relation to healthy control mice", "setting": "[3]; 11 days of daily treatment (SMA vehicle 25%)", "result": 13, "unit": "%"},
      {"measurement": "number of motor neurons per section by semi-ventral spinal cord", "setting": "[3]; 11 days of daily treatment, versus SMA vehicle, p<0.05", "result": "significantly higher"},
      {"measurement": "effect on the medial motor neurons", "setting": "[3]; versus SMA vehicle", "result": "no significant effect"},
      {"measurement": "number of lateral motor neurons", "setting": "[3]; versus SMA vehicle", "result": "higher"},
      {"measurement": "number of small motor neurons with a soma surface less than 300 μm^2", "setting": "[3]; versus SMA vehicle, p<0.05", "result": "significantly limiting"}
    ]}
  ]
}
